Reference: patent US8273890B2 (4SC AG, priority 2007, dated 2012)

target: T1, recombinant Plk1 protein (Homo sapiens, UniProt P53350); experiment: Plk1 kinase activity inhibition assay (33P-ATP, alpha casein substrate, flash plates); format: biochemical; settings: enzymatic assay, 100 nM Li-ATP, 80 minutes at 30° C.
T1 construct: histidine tag (N); made in house; host or cells: SF9 insect cells
How it was run: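 IC50 derived from radioactive flash-plate counts of 33P-labelled alpha casein after 80 min at 30 °C. Reaction: 100 nM 33P-containing ATP, 50–100 ng His-tagged Plk1 (SF9-expressed), 500 ng casein per well, HEPES pH 7.5 buffer with MgCl2/MnCl2.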

T1 sequence (P53350 whole entry): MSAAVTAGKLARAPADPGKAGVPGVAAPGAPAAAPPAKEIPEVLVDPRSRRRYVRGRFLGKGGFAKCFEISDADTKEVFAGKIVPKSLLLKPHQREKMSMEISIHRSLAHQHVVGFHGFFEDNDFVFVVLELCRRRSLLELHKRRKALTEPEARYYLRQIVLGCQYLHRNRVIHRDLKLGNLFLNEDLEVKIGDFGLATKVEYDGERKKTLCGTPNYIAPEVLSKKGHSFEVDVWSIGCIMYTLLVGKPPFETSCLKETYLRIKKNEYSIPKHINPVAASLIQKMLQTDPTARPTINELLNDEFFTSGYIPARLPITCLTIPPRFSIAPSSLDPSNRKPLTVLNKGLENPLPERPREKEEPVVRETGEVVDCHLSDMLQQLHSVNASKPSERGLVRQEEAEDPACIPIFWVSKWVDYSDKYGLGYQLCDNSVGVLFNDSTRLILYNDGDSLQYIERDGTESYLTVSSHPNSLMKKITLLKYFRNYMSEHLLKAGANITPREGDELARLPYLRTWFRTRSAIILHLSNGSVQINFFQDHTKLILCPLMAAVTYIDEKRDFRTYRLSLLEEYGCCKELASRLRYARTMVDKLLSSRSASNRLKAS

| SMILES | IC50 [nM] |
| --- | --- |
| CCN1CCN(Cc2cc3c(cn2)ncn3-c2cc(O[C@H](C)c3ccccc3Cl)c(C(N)=O)s2)CC1 [Example 130, 3-[(1R)-1-(2-chlorophenyl)ethoxy]-5-{6-[(4-ethylpiperazin-1-yl)methyl]-1H-imidazo[4,5-c]pyridin-1-yl}thiophene-2-carboxamide] | < 10 |
| NC(=O)c1sc(-n2cnc3cccnc32)cc1OCc1ccccc1C(F)(F)F [Example 19, 5-(3H-Imidazo[4,5-b]pyridin-3-yl)-3-{[2-(trifluoromethyl)benzyl]oxy}thio-phene-2-carboxamide] | 10 to 100 |
| C[C@@H](Oc1cc(-n2cnc3cnc(CNCCO)cc32)sc1C(N)=O)c1ccccc1C(F)(F)F [Example 104, 5-(6-{[(2-hydroxyethyl)amino]methyl}-1H-imidazo[4,5-c]pyridin-1-yl)-3-{(1R)-1-[2-(trifluoromethyl)phenyl]ethoxy}thiophene-2-carboxamide] | 10 to 100 |
| C[C@@H](Oc1cc(-n2cnc3cnc(CN4CCN(Cc5ccccc5)CC4)cc32)sc1C(N)=O)c1ccccc1C(F)(F)F [Example 79, 5-{6-[(4-benzylpiperazin-1-yl)methyl]-1H-imidazo[4,5-c]pyridin-1-yl}-3-{(1R)-1-[2-(trifluoromethyl)phenyl]ethoxy}thiophene-2-carboxamide] | 10 to 100 |
| C[C@@H](Oc1cc(-n2cnc3cnc(CN4CCN(C)CC4)cc32)sc1C(N)=O)c1ccccc1Br [Example 98, 3-[(1R)-1-(2-bromophenyl)ethoxy]-5-{6-[(4-methylpiperazin-1-yl)methyl]-1H-imidazo[4,5-c]pyridin-1-yl}thiophene-2-carboxamide] | < 10 |
| CC(Oc1cc(-n2cnc3cnc(CN4CCN(C(=O)N(C)C)CC4)cc32)sc1C(N)=O)c1ccccc1OC(F)F (stereo not shown) [Example 134, 4-{[1-(5-carbamoyl-4-{1-[2-(difluoromethoxy)phenyl]ethoxy}-2-thienyl)-1H-imidazo[4,5-c]pyridin-6-yl]methyl}-N,N-dimethylpiperazine-1-carboxamide] | < 10 |
| C[C@@H](Oc1cc(-n2cnc3cnc(CNCCN4CCN(C)CC4)cc32)sc1C(N)=O)c1ccccc1C(F)(F)F [Example 88, 5-[6-({[2-(4-methylpiperazin-1-yl)ethyl]amino}methyl)-1H-imidazo[4,5-c]pyridin-1-yl]-3-{(1R)-1-[2-(trifluoromethyl)phenyl]ethoxy}thiophene-2-carboxamide] | 10 to 100 |
| CC(Oc1cc(-n2cnc3cc(CO)ncc32)sc1C(N)=O)c1ccccc1Cl (stereo not shown) [Example 125, 3-[-1-(2-chlorophenyl)ethoxy]-5-[6-(hydroxymethyl)-3H-imidazo[4,5-c]pyridin-3-yl]thiophene-2-carboxamide] | < 10 |
| CCc1ccccc1COc1cc(-n2cnc3cnc(CN4CCN(CC)CC4)cc32)sc1C(N)=O [Example 154, 3-[(2-ethylbenzyl)oxy]-5-{6-[(4-ethylpiperazin-1-yl)methyl]-1H-imidazo[4,5-c]pyridin-1-yl}thiophene-2-carboxamide] | 10 to 100 |
| C[C@@H](Oc1cc(-n2cnc3ccncc32)sc1C(N)=O)c1ccccc1Cl [Example 32, 3-[(1R)-1-(2-chlorophenyl)ethoxy]-5-(3H-imidazo[4,5-c]pyridin-3-yl)thiophene-2-carboxamide] | < 10 |
| C[C@@H](Oc1cc(-n2cnc3cnc(CN4CCN(C)CC4)cc32)sc1C(N)=O)c1ccccc1F [Example 101, 3-[(1R)-1-(2-fluorophenyl)ethoxy]-5-{6-[(4-methylpiperazin-1-yl)methyl]-1H-imidazo[4,5-c]pyridin-1-yl}thiophene-2-carboxamide] | < 10 |
| CCCNCc1cc2c(cn1)ncn2-c1cc(O[C@H](C)c2ccccc2C(F)(F)F)c(C(N)=O)s1 [Example 113] | 10 to 100 |
| NC(=O)c1sc(-n2cnc3cnccc32)cc1OCc1ccc(F)cc1C(F)(F)F [Example 34, 3-{[4-fluoro-2-(trifluoromethyl)benzyl]oxy}-5-(1H-imidazo[4,5-c]pyridin-1-yl)thiophene-2-carboxamide] | 10 to 100 |
| CC(Oc1cc(-n2cnc3cnc(CN4CCN(C)CC4)cc32)sc1C(N)=O)c1ccccc1F (stereo not shown) [Example 103, 3-[1-(2-fluorophenyl)ethoxy]-5-{6-[(4-methylpiperazin-1-yl)methyl]-1H-imidazo[4,5-c]pyridin-1-yl}thiophene-2-carboxamide] | 10 to 100 |
| CN1CCN(Cc2cc3ncn(-c4cc(OCc5ccccc5C(F)(F)F)c(C(N)=O)s4)c3cn2)CC1 [Example 37, 5-{6-[(4-methylpiperazin-1-yl)methyl]-3H-imidazo[4,5-c]pyridin-3-yl}-3-{[2-(trifluoromethyl)benzyl]oxy}thiophene-2-carboxamide] | 1000 to 10000 |

Next, values leading:

| IC50 [nM] | SMILES |
| --- | --- |
| < 10 | C[C@@H](Oc1cc(-n2cnc3cnc(CN4CCN(S(C)(=O)=O)CC4)cc32)sc1C(N)=O)c1ccccc1C(F)(F)F [Example 66, 5-(6-{[4-(methylsulfonyl)piperazin-1-yl]methyl}-1H-imidazo[4,5-c]pyridin-1-yl)-3-{(1R)-1-[2-(trifluoromethyl)phenyl]ethoxy}thiophene-2-carboxamide] |
| 10 to 100 | NC(=O)c1sc(-n2cnc3cnccc32)cc1OCc1ccccc1F [Example 40, 3-[(2-fluorobenzyl)oxy]-5-(1H-imidazo[4,5-c]pyridin-1-yl)thiophene-2-carboxamide] |
| 10 to 100 | C[C@@H](Oc1cc(-n2cnc3cnc(CN4CCN(C(=O)c5ccccc5)CC4)cc32)sc1C(N)=O)c1ccccc1C(F)(F)F [Example 78, 5-{6-[(4-benzoylpiperazin-1-yl)methyl]-1H-imidazo[4,5-c]pyridin-1-yl}-3-{(1R)-1-[2-(trifluoromethyl)phenyl]ethoxy}thiophene-2-carboxamide] |
| < 10 | CN1CCN(Cc2cc3c(cn2)ncn3-c2cc(OCc3ccccc3C(F)(F)F)c(C(N)=O)s2)CC1 [Example 8, 5-{6-[(4-Methylpiperazin-1-yl)methyl]1H-imidazo[4,5-c]pyridin-1-yl}-3-{[2-(trifluoromethyl)benzyl]oxy}thiophene-2-carboxamide] |
| < 10 | C[C@@H](Oc1cc(-n2cnc3cnc(CO)cc32)sc1C(N)=O)c1ccccc1Cl [Example 54, 3-[(1R)-1-(2-chlorophenyl)ethoxy]-5-[6-(hydroxymethyl)-1H-imidazo[4,5-c]pyridin-1-yl]thiophene-2-carboxamide] |
| 100 to 1000 | CCOc1ccc(OCC)c(COc2cc(-n3cnc4cnc(CN5CCN(C)CC5)cc43)sc2C(N)=O)c1 [Example 155, 3-[(2,5-diethoxybenzyl)oxy]-5-{6-[(4-methylpiperazin-1-yl)methyl]-1H-imidazo[4,5-c]pyridin-1-yl}thiophene-2-carboxamide] |
| 10 to 100 | C[C@@H](Oc1cc(-n2cnc3cnc(CN4CCS(=O)(=O)CC4)cc32)sc1C(N)=O)c1ccccc1C(F)(F)F [Example 63, 5-{6-[(1,1-dioxidothiomorpholin-4-yl)methyl]-1H-imidazo[4,5-c]pyridin-1-yl}-3-{(1R)-1-[2-(trifluoromethyl)phenyl]ethoxy}thiophene-2-carboxamide] |
| 10 to 100 | CCC(Oc1cc(-n2cnc3cnc(CN4CCN(CCOC)CC4)cc32)sc1C(N)=O)c1ccccc1Cl (stereo not shown) [Example 139, 3-{[1-(2-chlorophenyl)propyl]oxy}-5-(6-{[4-(2-methoxyethyl)piperazin-1-yl]methyl}-1H-imidazo[4,5-c]pyridin-1-yl)thiophene-2-carboxamide] |
| < 10 | C[C@@H](Oc1cc(-n2cnc3cnc(CN4CCN(C5CC5)CC4)cc32)sc1C(N)=O)c1ccccc1C(F)(F)F [Example 60, 5-{6-[(4-cyclopropylpiperazin-1-yl)methyl]-1H-imidazo[4,5-c]pyridin-1-yl}-3-{(1R)-1-[2-(trifluoromethyl)phenyl]ethoxy}thiophene-2-carboxamide] |
| 10 to 100 | NC(=O)c1sc(-n2cnc3ccncc32)cc1OCc1ccccc1OC(F)F [Example 38, 3-{[2-(difluoromethoxy)benzyl]oxy}-5-(3H-imidazo[4,5-c]pyridin-3-yl)thiophene-2-carboxamide] |
| 10 to 100 | NC(=O)c1sc(-n2cnc3cnccc32)cc1OCc1cccc(C(F)(F)F)c1 [Example 35, 5-(1H-imidazo[4,5-c]pyridin-1-yl)-3-{[3-(trifluoromethyl)benzyl]oxy}thiophene-2-carboxamide] |
| 10 to 100 | Cc1ccccc1C(C)Oc1cc(-n2cnc3cnc(CN4CCN(C(C)C)CC4)cc32)sc1C(N)=O (stereo not shown) [Example 149, 5-{6-[(4-isopropylpiperazin-1-yl)methyl]-1H-imidazo[4,5-c]pyridin-1-yl}-3-[1-(2-methylphenyl)ethoxy]thiophene-2-carboxamide] |
| 10 to 100 | C[C@@H](Oc1cc(-n2cnc3cnc(CN4CCN(c5ccncc5)CC4)cc32)sc1C(N)=O)c1ccccc1Cl [Example 131, 3-[(1R)-1-(2-chlorophenyl)ethoxy]-5-{6-[(4-pyridin-4-ylpiperazin-1-yl)methyl]-1H-imidazo[4,5-c]pyridin-1-yl}thiophene-2-carboxamide] |
| 10 to 100 | N#Cc1ccccc1COc1cc(-n2cnc3cnccc32)sc1C(N)=O [Example 39, 3-[(2-cyanobenzyl)oxy]-5-(1H-imidazo[4,5-c]pyridin-1-yl)thiophene-2-carboxamide] |
| 10 to 100 | C[C@@H](Oc1cc(-n2cnc3cc(CO)ncc32)sc1C(N)=O)c1ccccc1C(F)(F)F [Example 47, 5-[6-(hydroxymethyl)-3H-imidazo[4,5-c]pyridin-3-yl]-3-{(1R)-1-[2-(trifluoromethyl)phenyl]ethoxy}thiophene-2-carboxamide] |
| 100 to 1000 | NC(=O)c1sc(-n2cnc3cnc(C(=O)NCCN4CCOCC4)cc32)cc1OCc1ccccc1C(F)(F)F [Example 5, 1-(5-Carbamoyl-4-{[2-(trifluoromethyl)benzyl]oxy}-2-thienyl)-N-(2-morpholin-4-ylethyl)-1H-imidazo[4,5-c]pyridine-6-carboxamide] |
